Data from ChEMBL document CHEMBL1159255, “Cardenolides from Nierembergia aristata” (1995).
Values after ≈ are worked out from the molar mass of the structure shown.

Columns and labels:
[1] = system: SK-MEL-2; assay: Cytotoxicity against human SK-MEL-2 cells; assay type: functional; settings: read-out: ED50 (the source's name)
[2] = system: Lu1; assay: Cytotoxicity against human Lu1 cells; assay type: functional; settings: read-out: ED50 (the source's name)
[3] = system: HT; assay: Cytotoxicity against human HT cells; assay type: functional; settings: read-out: ED50 (the source's name)
[4] = Cytotoxicity against human BC1 cells; assay type: functional; settings: read-out: ED50 (the source's name)
[5] = system: Col2; assay: Cytotoxicity against human Col2 cells; assay type: functional; settings: read-out: ED50 (the source's name)
[6] = system: KB; assay: Cytotoxicity against human KB cells; assay type: functional; settings: read-out: ED50 (the source's name)
[7] = Cytotoxicity against human KBVIN cells in presence of vinblastine; assay type: functional; settings: read-out: ED50 (the source's name)
[8] = Cytotoxicity against human KBVIN cells in absence of vinblastine; assay type: functional; settings: read-out: ED50 (the source's name)
[9] = system: A-431; assay: Cytotoxicity against human A431 cells; assay type: functional; settings: read-out: ED50 (the source's name)
[10] = system: LNCaP; assay: Cytotoxicity against human LNCAP cells; assay type: functional; settings: read-out: ED50 (the source's name)
[11] = system: ZR-75-1; assay: Cytotoxicity against human ZR-75-1 cells; assay type: functional; settings: read-out: ED50 (the source's name)
[12] = Cytotoxicity against human U373 cells; assay type: functional, U-373MG ATCC; settings: U373 MG, read-out: ED50 (the source's name)

Structure (SMILES)	EC50 [1]	EC50 [2]	EC50 [3]	EC50 [4]	EC50 [5]	EC50 [6]	EC50 [7]	EC50 [8]	EC50 [9]	EC50 [10]	EC50 [11]	EC50 [12]
C[C@H]1O[C@@H](O[C@H]2CC[C@]3(C=O)[C@H]4CC[C@]5(C)[C@@H](C6=CC(=O)OC6)CC[C@]5(O)[C@@H]4C=C[C@]3(O)C2)C[C@H](O)[C@H]1O	0.05 µg/mL (≈ 0.0939 µM)	0.03 µg/mL (≈ 0.0563 µM)	0.05 µg/mL (≈ 0.0939 µM)	0.04 µg/mL (≈ 0.0751 µM)	0.07 µg/mL (≈ 0.131 µM)	0.04 µg/mL (≈ 0.0751 µM)	0.05 µg/mL	0.06 µg/mL (≈ 0.113 µM)	0.09 µg/mL (≈ 0.169 µM)	0.1 µg/mL (≈ 0.188 µM)	0.08 µg/mL (≈ 0.15 µM)	0.09 µg/mL (≈ 0.169 µM)
C[C@H]1O[C@@H](O[C@H]2CC[C@]3(C=O)[C@H]4[C@H](O)C[C@]5(C)[C@H](C6=CC(=O)OC6)CC[C@]5(O)[C@@H]4C=C[C@]3(O)C2)C[C@H](O)[C@H]1O	4.1 µg/mL (≈ 7.47 µM)	0.09 µg/mL (≈ 0.164 µM)	2.3 µg/mL (≈ 4.19 µM)	0.3 µg/mL (≈ 0.547 µM)	0.5 µg/mL (≈ 0.911 µM)	0.3 µg/mL (≈ 0.547 µM)	0.6 µg/mL	1.6 µg/mL (≈ 2.92 µM)	0.5 µg/mL (≈ 0.911 µM)	0.3 µg/mL (≈ 0.547 µM)	0.4 µg/mL (≈ 0.729 µM)	0.4 µg/mL (≈ 0.729 µM)
CO[C@@H]1C[C@H](O[C@H]2CC[C@]3(C=O)[C@H]4CC[C@]5(C)[C@@H](C6=CC(=O)OC6)CC[C@]5(O)[C@@H]4C=C[C@]3(O)C2)O[C@H](C)[C@H]1O	0.8 µg/mL (≈ 1.46 µM)	0.1 µg/mL (≈ 0.183 µM)	0.4 µg/mL (≈ 0.732 µM)	0.3 µg/mL (≈ 0.549 µM)	0.9 µg/mL (≈ 1.65 µM)	0.3 µg/mL (≈ 0.549 µM)	0.3 µg/mL	0.5 µg/mL (≈ 0.915 µM)	0.7 µg/mL (≈ 1.28 µM)	0.5 µg/mL (≈ 0.915 µM)	0.2 µg/mL (≈ 0.366 µM)	0.8 µg/mL (≈ 1.46 µM)
